Here are results for 3 compounds from patent US20260209175A1, “PHARMACEUTICALLY ACCEPTABLE 5-METHOXY-N,N-DIMETHYL[…] AND COMPOSITIONS THEREOF” (priority 2022, published 2026).

Structures can show the parent of a compound that is named as a salt. Where two headings read alike, the source gives them in different places.

Data set [1] is described as follows: Dynamic Vapor Sorption (DVS) analysis of salts, with XRPD of the post-DVS sample. Type of data set: physicochemical. The method, then: XRPD diffractograms were acquired using Bruker D2 Phaser diffractometer equipped with LYNXEYE detector. Samples were prepared using a zero-background sample holder. The samples were scanned from 5 to 32° (2θ) using a step size of 0.02° and a time per step of 0.13 second whilst spinning the sample. Diffractograms were plotted using the EVA program from Bruker.
DVS analyses were performed on TA Instrument DVS Q5000. Samples were added to a pre-tared metallised quartz crucible and run at 25° C. from 40% RH to 90% RH, down to zero and back to 40%. This cycle was repeated in increments of 10% RH.

Data set [2] is classed as physicochemical. The following applies: 40° C./75% RH, three days. The procedure:
Salt screening studies with 24 selected counter-ions were performed to determine if 5-MeO-DMT free base is amenable to salt formation. […] Salts were examined by XRPD, TGA, DSC, 1H NMR and some by DVS analyses. Short term physical stability was examined by storage of salts at 40° C./75% RH for three days.
Physical stability stress tests were conducted on generated crystalline salts at controlled temperature and relative humidity. The powder samples were stored at 40° C./75% RH for three days. After this time samples were analysed by XRPD to see whether the physical state of salts changed during the storage.

A short description of data set [3]: Solubility assessments in four different media. Format: physicochemical. The following applies: for pH after addition of 1 ml media at 37° C. / Observation / pH after addition of 1.5 ml media at 37° C.: 250 mg per vial; for solubility relative to other salts: comparison of the salt forms. The procedure: Solubility assessments of 5-MeO-DMT oxalate, hydrobromide fumarate and benzoate were performed in four different media: […]

Data set [4] in a line: Dissolution rate in simulated nasal fluid (UV-fiber optic dissolution apparatus). The following applies: 5 mg in 5 mL simulated nasal fluid, 37° C., 150 RPM. Type of data set: physicochemical. The procedure: The dissolution rate was determined using a method comprising the use of a UV-fiber optic-based dissolution apparatus (one such suitable device is the Rainbow® Dynamic Dissolution Monitor by Pion Inc) and simulated nasal fluid. The simulated nasal fluid comprises 7.45 g/L NaCl, 1.29 g/L KCl, 0.32 g/L CaCl2×2H2O and deionised water.
The dissolution apparatus was set up with a 2 mm probe to measure the dissolution rate. 5 mg of the salt form was transferred into 5 mL of simulated nasal fluid, heated to a constant temperature of 37° C. and stirred at 150 RPM using a crossed stirrer bar. Measurements were taken at 3 s intervals for 130 intervals followed by 60 measurements taken at 10 s intervals for a total time of 16 minutes and 30 s. Detection of dissolution is by UV absorbance.

Data set [5] in a line: Thermo-Gravimetric Analysis (TGA), thermal stability. Format: physicochemical. The following applies: 10° C./min ramp; for thermally stable up to (TGA): nitrogen.
Method: TGA thermograms were obtained with a TA Instrument Discovery 550 in Al pans. The heating rate used was 10° C./min linear ramp from 25 to 400° C. with a nitrogen purging at a rate of 60 ml/min. TGA thermograms were analysed using TRIOS software.
The nature of data set [6]: Oxalate salt solubility by HPLC. Type of data set: physicochemical. The following applies: pH 1.2 medium, simulated gastric fluid, thermodynamic from solid, mother liquors adjusted to the desired pH, read-out: Solubility (mg/mL) of free base. The method, then:
The benzoate salt has a solubility of, at least, 100 mg/ml. The calibration curve of the free base was prepared between 0.031-0.500 mg/ml and can be seen in FIG. 172.
Mother liquors were adjusted to the desired pH before HPLC quantification.

The mark [7] stands for this setting: salt screen / scale-up batches, DVS at 25° C.

`Br.COc1ccc2[nH]cc(CCN(C)C)c2c1` [Hydrobromide salt, 5-MeO-DMT hydrobromide]: in data set [1] (salt produced during scale-up), the “solid form after DVS (XRPD post DVS)” value is “no change in crystalline form”. For the same compound, in data set [1] (setting [7]), the hygroscopicity classification entry is reported as “non-hygroscopic”. Also, in data set [2], the “crystalline form by XRPD after storage” value is “No change in crystalline form”. Further, the “pH after addition of 1 ml media at 37° C.” value in data set [3] (SNF) is 8.13; in data set [3] (pH 1.2 buffer), 8.09; in data set [3] (pH 4.5 buffer), 7.65; in data set [3] (pH 6.8 buffer), 7.82. Also, the Observation result in data set [3] (SNF, 1 ml media at 37° C.) is “Clear solution”; in data set [3] (pH 1.2 buffer, 1 ml media at 37° C.), “Clear solution”; in data set [3] (pH 4.5 buffer, 1 ml media at 37° C.) it was “Clear solution”; in data set [3] (pH 6.8 buffer, 1 ml media at 37° C.), “Clear solution”. For the same compound, the “solubility relative to other salts” value in data set [3] is on record as “high solubility”. Moreover, the dissolution rate result in data set [4] is listed as “almost instantaneous”. In addition, the “thermally stable up to (TGA)” value in data set [5] was found to be 220 °C.

Consider `COc1ccc2[nH]cc(CCN(C)C)c2c1` [Oxalate salt, 5-MeO-DMT oxalate], for which, in data set [1], the “solid form after DVS (XRPD post DVS)” value is reported as “no change in the crystalline form”. Moreover, the “pH after addition of 1.5 ml media at 37° C.” value in data set [3] (SNF) is listed as 2.13; in data set [3] (pH 1.2 buffer) it was 1.87; in data set [3] (pH 4.5 buffer), 3.05; in data set [3] (pH 6.8 buffer), 3.45. Besides, the Observation entry is “Suspension” in data set [3] (SNF, 1.5 ml media at 37° C.); “Suspension” in data set [3] (pH 1.2 buffer, 1.5 ml media at 37° C.); “Suspension” in data set [3] (pH 4.5 buffer, 1.5 ml media at 37° C.); “Suspension” in data set [3] (pH 6.8 buffer, 1.5 ml media at 37° C.). For the same compound, the “solubility relative to other salts” value in data set [3] is “lowest solubility”. For the same compound, in data set [6], the solubility was 19 mg/mL. Further, in data set [4], the dissolution rate entry is “prolonged”.

Regarding `COc1ccc2[nH]cc(CCN(C)C)c2c1` [Tartrate salt, 5-MeO-DMT tartrate], the “total water (moisture) uptake between 0% RH and 90% RH” value in data set [1] (25° C) is listed as “approximately 3.3 % w/w”. Besides, the “sorption/desorption behaviour (reversibility, hysteresis)” value in data set [1] (DVS isotherm, 25° C) is “reversible and overlap”. Besides, in data set [1] (Example 3 Pattern 1 batches), the “solid form after double-cycle DVS experiment (XRPD)” value was “unchanged”. Further, the “total reversible mass change between 0-90% RH” value in data set [1] (Example 3 Pattern 1 batches) came out at 0.6 wt. %. Moreover, the hygroscopicity classification result in data set [1] (Example 3 Pattern 1 batches, 0-90% RH) is “slightly hygroscopic (Pharmaceuticals that pick up between 0.2% and 2.0% moisture at 80% RH are considered slightly hygroscopic)”; in data set [1] (setting [7]) it was “moderately hygroscopic (Pharmaceuticals that pick up between 2.0% and 15.0% moisture at 80% RH are considered moderately hygroscopic)”; in data set [1] (salt screen / scale-up batches, DVS at 25° C, listed as tartrate salt), “moderately hygroscopic (Pharmaceuticals that pick up between 2.0% and 15.0% moisture at 80% RH are considered moderately hygroscopic)”. The “solid form after DVS (XRPD post DVS)” value in data set [1] (salt screen batches) is “did not undergo any solid form transformation”. Also, the “crystalline form by XRPD after storage” value in data set [2] is “No change in the crystalline form”. The “onset of decomposition / mass loss (TGA)” value in data set [5] worked out at 175 °C. The “thermally stable up to (TGA)” value in data set [5] is “around 170 °C”.
